Results reported in patent US20240287351A1, “ENGINEERED MULTIFUNCTIONAL PARTICLES AND THIN DURABLE COATINGS COMPRISING CROSSLINKED SILANE POLYMERS CONTAINING UREA” (Bar-Ilan University, priority 2020, published 2024).

Test system: microorganisms
Assay: Antimicrobial activity after organic materials and repetitive microbial loading cycles
Conditions: after exposure to organic materials and repetitive microbial loading cycles

Structure (SMILES): [Na+].[O-]Cl [bleach, sodium hypochlorite]
- retention of antimicrobial activity: losing its biocidal activity rapidly
